In article PMC5706701, “Development of a homogenous high-throughput assay for inositol hexakisphosphate kinase 1 activity” (PLoS ONE, 2017):
Where a name gives a salt, the structure may show the parent alone. Read-outs that look alike come from different tables or passages of the source.

Biological target: T1, Human IP6K1 (Homo sapiens, UniProt Q92551)
T1 construct: GST (N, cleaved yes); made in house; host or cells: C43 E. coli, pGEX-6P-2
Assay: IP6K1 high-throughput screen of the Sigma LOPAC (ADP-Glo Max, single point);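 further: final compound concentration 10µM in 5% DMSO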
Assay type: biochemical

[1] = Sigma LOPAC single-point screen, ADP-Glo Max raw signal per well
[2] = Sigma LOPAC single-point screen, Z-score from plate average and StDev
[3] = LOPAC single-point screen, ADP-Glo Max luminescence raw signal per well
[4] = LOPAC single-point screen, Z-score relative to plate average and StDev
[5] = LOPAC single-point screen, ADP-Glo Max raw signal per well
[6] = LOPAC single-point screen, Z-score against plate average and StDev
[7] = LOPAC single-point screen, Z-score from raw signal with plate average and StDev
[8] = LOPAC single-point screen, Z-score from plate average and StDev

T1 sequence (Q92551 whole entry): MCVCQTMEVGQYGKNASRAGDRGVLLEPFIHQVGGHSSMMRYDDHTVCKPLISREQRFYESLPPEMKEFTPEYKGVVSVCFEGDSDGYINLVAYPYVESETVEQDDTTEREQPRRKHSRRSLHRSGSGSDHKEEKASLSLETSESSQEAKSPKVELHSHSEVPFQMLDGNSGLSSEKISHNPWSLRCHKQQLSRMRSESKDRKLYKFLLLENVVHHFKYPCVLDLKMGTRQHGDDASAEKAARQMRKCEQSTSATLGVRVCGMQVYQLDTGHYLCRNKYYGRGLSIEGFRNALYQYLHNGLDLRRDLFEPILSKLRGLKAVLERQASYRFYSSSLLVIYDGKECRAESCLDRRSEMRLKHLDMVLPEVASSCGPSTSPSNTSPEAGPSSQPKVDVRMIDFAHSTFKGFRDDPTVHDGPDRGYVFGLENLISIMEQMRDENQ

| Compound | Raw Signal [1] | Z-score [2] | Raw Signal [5] | further results |
| --- | --- | --- | --- | --- |
| O=C1CCC(c2ccc(-n3ccnc3)cc2)=NN1 [Imazodan] | 60009 | 0.9834 |  |  |
| N#C/C(=C\c1ccc(O)c(O)c1)C(=O)N1CCc2ccccc21 [Tyrphostin AG 528] | 58882 | 0.5553 |  |  |
| Cl.c1ccc([C@H]2CN3CCSC3=N2)cc1 [(-)-Tetramisole hydrochloride] |  |  |  | Raw Signal: 55029; Z-score: 0.1068 |
| COC(=O)[C@@H](N)Cc1ccc(O)c(O)c1.Cl |  |  |  | Raw Signal [3]: 38457; Z-score [4]: -3.394 |
| CN(C)CCCC1(c2ccc(F)cc2)OCc2cc(C#N)ccc21 (centres unmarked) [Citalopram hydrobromide] |  |  | 58251 | Z-score [6]: 0.05951 |
| CCOC(=O)C1=C(C)NC(C)=C(C(=O)OC)C1c1cccc(Cl)c1Cl (centres unmarked) [Felodipine] |  |  |  | Raw Signal [3]: 52611; Z-score [4]: -0.5191 |
| NC(=O)N1c2ccccc2C=Cc2ccccc21 [Carbamazepine] | 60604 | 0.4739 |  |  |
| CN1CCN(CCCN2c3ccccc3Sc3ccc(C(F)(F)F)cc32)CC1 [Trifluoperazine dihydrochloride] | 58037 | 0.3911 |  |  |
| C[C@]12CCC(=O)C=C1CC[C@@H]1[C@@H]2CC[C@]2(C)C(=O)CC[C@@H]12 [4-Androstene-3,17-dione] |  |  | 58885 | Z-score [6]: 0.1712 |
| CC(C)(C(=O)O)c1ccc(C(O)CCCN2CCC(C(O)(c3ccccc3)c3ccccc3)CC2)cc1 (centres unmarked) [Fexofenadine hydrochloride] | 58731 | 0.7238 |  |  |
| NC(N)=Nc1nc(CSCCC(N)=NS(N)(=O)=O)cs1 [Famotidine] |  |  | 53127 | Z-score [7]: -0.4143 |
| CCOC(=O)N1CCC(=C2c3ccc(Cl)cc3CCc3cccnc32)CC1 [Loratadine] |  |  |  | Raw Signal [3]: 49648; Z-score [4]: -0.7974 |
| NC(=O)CN1CC(O)CC1=O (centres unmarked) [Oxiracetam] |  |  | 55053 | Z-score [6]: 0.1108 |
| O=C(CCNNC(=O)c1ccncc1)NCc1ccccc1 [Nialamide] |  |  | 52793 | Z-score [7]: -0.2689 |
| CN(C)CCCN1c2ccccc2Sc2ccc(Cl)cc21 [Chlorpromazine hydrochloride] | 63674 | 1.015 |  |  |
| Cl.NNC(N)=O [Semicarbazide hydrochloride] |  |  | 55828 | Z-score [6]: -0.03804 |
| S(-)-UH-301 hydrochloride |  |  | 55198 | Z-score [7]: -0.1604 |
| O=c1[nH]c2ccccc2n1CCCN1CCN(C(c2ccccc2)c2ccccc2)CC1 [Oxatomide] |  |  | 55062 | Z-score [6]: 0.1123 |
| CN(C)C(=O)Oc1ccc[n+](C)c1 [Pyridostigmine bromide] |  |  | 56672 | Z-score [6]: 0.1259 |
| CC(C)COC(=O)OCN1C(=O)CN(CCN2CC(=O)N(COC(=O)OCC(C)C)C(=O)C2)CC1=O [Sobuzoxane] |  |  | 54088 | Z-score [7]: -0.3761 |
| Nc1c2c(nc3ccccc13)CCCC2O.O=C(O)/C=C\C(=O)O (centres unmarked) [Hydroxytacrine maleate] |  |  | 53095 | Z-score [7]: -0.4208 |
| COC(=O)[C@@H](N)CCCN=C(N)N[N+](=O)[O-].Cl | 58464 | 0.6839 |  |  |

| Compound | Raw Signal [1] | Z-score [2] | Raw Signal [5] | further results |
| --- | --- | --- | --- | --- |
| CN(Cc1cnc2nc(N)nc(N)c2n1)c1ccc(C(=O)N[C@@H](CCC(=O)O)C(=O)O)cc1 [Methotrexate] | 60039 | 0.3744 |  |  |
| Clc1ccc(N2C[C@H]3CC[C@@H](C2)N3)nn1 [DBO-83] |  |  | 54063 | Z-score [7]: -0.2242 |
| Cn1cnc2c(NCc3ccccc3)nc(NCCO)nc21 [Olomoucine] | 60982 | 1.107 |  |  |
| N=C(N)c1ccc(OCCCCCOc2ccc(C(=N)N)cc2)cc1 [Pentamidine isethionate] |  |  | 54696 | Z-score [6]: 0.05083 |
| CC1=C(C)C(=O)C(CCCCC#CCCCC#CCO)=C(C)C1=O [AA-861] |  |  |  | Raw Signal [3]: 50345; Z-score [4]: -1.333 |
| CC1=C(/C=C/C(C)=C/C=C/C(C)=C\C(=O)O)C(C)(C)CCC1 [13-cis-retinoic acid] |  |  | 55954 | Z-score [6]: -0.01356 |
| CC(C)NCC(O)c1ccc(O)c(O)c1.Cl (racemic) [(±)-Isoproterenol hydrochloride] | 57305 | 0.4892 |  |  |
| CC(C)[N+](C)(CCOC(=O)C1c2ccccc2Oc2ccccc21)C(C)C [Propantheline bromide] | 58434 | 0.4683 |  |  |
| Cc1cc(C(C)(C)C)c(O)c(C)c1CC1=NCCN1 [Oxymetazoline hydrochloride] |  |  | 52488 | Z-score [7]: -0.3202 |
| O=C1NC(=O)C(c2ccccc2)(c2ccccc2)N1 [5,5-Diphenylhydantoin] |  |  | 54091 | Z-score [7]: -0.2185 |
| Br.Br.N=C(N)SCCc1ccc(CCSC(=N)N)cc1 [1,4-PBIT dihydrobromide] |  |  |  | Raw Signal [3]: 52088; Z-score [4]: -0.7647 |
| NCCCCCC(=O)O [6-Aminohexanoic acid] |  |  |  | Raw Signal [3]: 70191; Z-score [8]: 2.162 |
| Cc1ccc(OCC(O)C(C)NC(C)C)c2c1CCC2.Cl (centres unmarked) [ICI 118,551 hydrochloride] | 57174 | 0.4672 |  |  |
| O=c1[nH]c2cc(Cl)c(Cl)cc2[nH]c1=O [6,7-Dichloroquinoxaline-2,3-dione] |  |  | 56553 | Z-score [6]: 0.2815 |
| COc1ccc(CCCOC(Cn2ccnc2)c2ccc(OC)cc2)cc1 (centres unmarked) [SKF 96365] |  |  | 56420 | Z-score [6]: 0.07697 |
| C#CCOC(=O)C1=CCCN(C)C1 [Arecaidine propargyl ester hydrobromide] |  |  | 56259 | Z-score [7]: -0.2913 |
| Br.COc1ccccc1N1CCN(CCCCN2C(=O)c3ccccc3C2=O)CC1 [NAN-190 hydrobromide] | 61226 | 1.148 |  |  |
| CN1C(C)(C)CCCC1(C)C [Pempidine tartrate] | 56899 | 0.421 |  |  |
| Cn1c(=O)c2c(ncn2C)n(C)c1=O [Caffeine] |  |  | 57928 | Z-score [6]: 0.002624 |
| COc1[nH]c2ccc(F)cc2c1C(=O)OCC1CCN(CCNS(C)(=O)=O)CC1.NS(=O)(=O)O [GR 125487 sulfamate salt] |  |  |  | Raw Signal [3]: 51618; Z-score [4]: -0.7208 |
| Cl.NCC#Cc1ccccc1 [3-Phenylpropargylamine hydrochloride] |  |  |  | Raw Signal [3]: 53264; Z-score [4]: -0.5362 |
| NC(=O)c1cc(N2CC2)c([N+](=O)[O-])cc1[N+](=O)[O-] [CB 1954] |  |  | 55279 | Z-score [7]: -0.4639 |

| Compound | Raw Signal [1] | Z-score [2] | Raw Signal [5] | further results |
| --- | --- | --- | --- | --- |
| Cc1cn[nH]c1.Cl [4-Methylpyrazole hydrochloride] |  |  |  | Raw Signal [3]: 63526; Z-score [8]: 1.5345 |
| CN1CCN(C2Cc3ccccc3Sc3ccc(Cl)cc32)CC1.O=C(O)/C=C\C(=O)O (racemic) [(±)-Octoclothepin maleate] | 60782 | 1.073 |  |  |
| O=C(Cc1ccc(Cl)c(Cl)c1)OCCN1CCCC1 [AC 915 oxalate] |  |  | 57662 | Z-score [6]: -0.04423 |
| NCC(CC(=O)O)c1ccc(Cl)cc1 (racemic) [(±)-Baclofen] | 65373 | 1.3139 |  |  |
| NC(N)=Nc1ccc2[nH]c3c(c2c1)C[C@@]1(O)[C@H]2Cc4ccc(O)c5c4[C@@]1(CCN2CC1CC1)[C@H]3O5.O=C(O)C(F)(F)F.O=C(O)C(F)(F)F |  |  |  | Raw Signal [3]: 65830; Z-score [8]: 2.166 |
| CNC(=O)Oc1ccc2c(c1)[C@]1(C)CCN(C)[C@@H]1N2C [(-)-Physostigmine] |  |  |  | Raw Signal [3]: 62569; Z-score [8]: 1.503 |
| CC(Cc1ccc(O)c(O)c1)C(C)Cc1ccc(O)c(O)c1 (centres unmarked) |  |  | 56278 | Z-score [6]: 0.3166 |
| CS(=O)(=O)O.Cc1c(C(=O)c2cccc3ccccc23)c2cccc3c2n1[C@H](CN1CCOCC1)CO3 [(R)-(+)-WIN 55,212-2 mesylate] | 62593 | 1.276 |  |  |
| CN(C)c1ccc(/C=C2\C(=O)Nc3ccccc32)cc1 [SU 4312] | 60273 | 0.8255 |  |  |
| COc1cc(-c2ccc(=O)[nH]n2)ccc1OC(F)F [Zardaverine] |  |  | 57604 | Z-score [6]: 0.307 |
| CC(C)C[C@H](NP(=O)([O-])O[C@H]1O[C@H](C)[C@@H](O)[C@H](O)[C@@H]1O)C(=O)N[C@@H](Cc1c[nH]c2ccccc12)C(=O)[O-].[Na+].[Na+] [Phosphoramidon disodium] |  |  | 56521 | Z-score [6]: 0.0966 |
| CC(C)N(CCC(C(N)=O)(c1ccccc1)c1ccccn1)C(C)C (centres unmarked) [Disopyramide phosphate] |  |  | 54365 | Z-score [7]: -0.1629 |
| Cl.NCCc1ccc(O)cc1 [4-Hydroxyphenethylamine hydrochloride] |  |  | 54724 | Z-score [7]: -0.2525 |
| O=C(O)c1ccccc1Nc1cccc(OCc2ccc3ccccc3n2)c1 [SR 2640] |  |  |  | Raw Signal [3]: 52929; Z-score [4]: -0.6013 |
| C#C[C@]1(O)CC[C@H]2[C@@H]3CCC4=Cc5nc6nc7ccccc7n6cc5C[C@]4(C)[C@H]3CC[C@@]21C [WIN 62,577] | 58080 | 0.3995 |  |  |
| Oc1ccc(Cn2cc[nH]c2=S)cc1 [1-(4-Hydroxybenzyl)imidazole-2-thiol] |  |  |  | Raw Signal [3]: 52381; Z-score [4]: -0.5658 |
| OC[C@H]1O[C@@H](n2cnc3c(NC4CCCCC4)ncnc32)[C@H](O)[C@@H]1O [N6-Cyclohexyladenosine] | 60438 | 1.07 |  |  |
| N#C/C(=C\c1ccc(O)c(O)c1)C(=O)NCCCNC(=O)/C(C#N)=C/c1ccc(O)c(O)c1 [Tyrphostin AG 537] |  |  |  | Raw Signal [3]: 33325; Z-score [4]: -4.41 |
| NCCS(=O)O [Hypotaurine] |  |  | 53524 | Z-score [7]: -0.3337 |
| CCCCCC(O)c1cccc(OCc2ccc3ccccc3n2)c1 (centres unmarked) [REV 5901] | 62376 | 1.234 |  |  |
